Assay results: EP0116255A2, “Treatment of migraine with N-alkyl-piperidinyl benzoate derivatives” (MERRELL DOW FRANCE ET CIE, priority 1982, dated 1984)
Read-outs that look alike come from different tables or passages of the source.

Key:
5-HT M-receptor [1] = target: T1, 5-HT M-receptor (Oryctolagus cuniculus, UniProt A0A5F9C9J3); assay: pA2 against 5-HT in the isolated rabbit heart; details: negative logarithm of molar antagonist concentration reducing effect of twice the ED50 of 5-HT to that of the ED50
T1 sequence (A0A5F9C9J3 35-494): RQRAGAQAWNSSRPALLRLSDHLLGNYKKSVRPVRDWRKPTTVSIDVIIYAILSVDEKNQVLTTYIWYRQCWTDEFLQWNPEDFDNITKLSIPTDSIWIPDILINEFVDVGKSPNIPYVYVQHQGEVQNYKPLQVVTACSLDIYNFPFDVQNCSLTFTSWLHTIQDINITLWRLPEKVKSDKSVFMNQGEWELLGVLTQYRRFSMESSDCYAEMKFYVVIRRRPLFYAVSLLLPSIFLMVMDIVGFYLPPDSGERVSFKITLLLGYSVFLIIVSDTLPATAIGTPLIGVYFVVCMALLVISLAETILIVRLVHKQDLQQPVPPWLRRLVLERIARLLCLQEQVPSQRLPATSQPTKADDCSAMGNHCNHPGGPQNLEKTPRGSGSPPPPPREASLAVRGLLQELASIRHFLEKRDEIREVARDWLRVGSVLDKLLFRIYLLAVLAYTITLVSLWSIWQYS
Procedure: The activity of the compounds against 5-HT can be assessed by determining their pA2 values in the isolated rabbit heart as described by J.R. Fozard et al Europ. J. Pharmacol. 59, 195-210 (1979). In the method described the molar concentration of antagonist which reduces the effects of twice the ED50 of 5-HT to that of the ED50 in the absence of antagonist is determined. The pA2 value is the negative logarithm of said molar concentrations.

[2] = tested on: von Bezold-Jarisch reflex evoked by 5-HT; assay: Antagonism of the von Bezold-Jarisch reflex evoked by 5-HT in the anaesthetised rat; assay type: in vivo; details: iv, anaesthetised male Sprague-Dawley rat, antagonist intravenously; for ED50: dose inhibiting the response to 5-HT (2µg/kg i.v.) by 50%
Text: The activity of the compounds of Formula I against 5-HT can be assessed in vivo by measurement of the effect of the compound on the Von Bezold-Jarisch Reflex induced by 5-HT injected intravenously into the rat (see A.S. Paintal, Physiol. Rev. 53 (159-227), 1973). The transient cardiac slowing results arises from an increased efferent vagus activity arising from stimulation by 5-HT of sensory afferent fibres in and around the heart.
Antagonism of the von Bezold-Jarisch reflex evoked by 5-HT in the anaesthetised rat was measured for N-methyl-4-piperidinyl-3',5'-dimethylbenzoate (Compound A) and N-methyl-3-piperidinyl 3',5'-dimethylbenzoate (Compound B), using the following method: • Male Sprague-Dawley rats weighing 250-300 g are anaesthetized with urethane, 1.25 g/kg injected intraperitoneally and set up for recording blood pressure and heart rate as described in Fozard J.R et al., J. Cardiovasc. Pharmacol. 2, 229-245 (1980). A submaximal dose of 5-HT (2µg/kg) is given repeatedly into the cannulated jugular vein and changes in heart rate quantified. Antagonists are given intravenously and the doses required to just inhibit the response to 5-HT (threshold dose) or to inhibit the response to 5-HT by 50% (ED50) are determined.

5-HT M-receptor [3] = target: T1, 5-HT M-receptor; details: 5-HT M-receptor antagonism; values reported in the literature (J.R. Fozard et al., Eur. J. Pharmacol.); cited from earlier work

| Compound | pA2 5-HT (5-HT M-receptor [1]) | ED50 [2] [mg/kg] | minimal effective dose ([2]; dose required to just inhibit the response to 5-HT (2µg/kg i.v.), read-out: THRESHOLD DOSE) [mg/kg] | pA2 5-HT (5-HT M-receptor [3]) |
| --- | --- | --- | --- | --- |
| Cc1cc(C)cc(C(=O)OC2CCN(C)CC2)c1 [Compound A, N-Methyl-4-piperidinyl-3',5'-dimethylbenzoate] | 8.1 | 0.136 ± 0.022 |  |  |
| Cc1cc(C)cc(C(=O)OC2CCCN(C)C2)c1 (stereo not drawn) [Compound B, N-Methyl-3-piperidinyl-3',5'-dimethylbenzoate] | 7.3 | 0.51 ± 0.116 |  |  |
| CCN(CC)CCNC(=O)c1cc(Cl)c(N)cc1OC [metoclopramide] |  | 0.408 ± 0.0809 | 0.233 ± 0.0663 | 7.2 |
| COC(=O)[C@H]1[C@@H](OC(=O)c2ccccc2)C[C@@H]2CC[C@H]1N2 [nor(-)cocaine] |  |  |  | 7.7 |
| tropyl benzoate |  |  |  | 7.2 |
